Patent US20210207086A1, “NE[…], INTERNAL AGENT, CULTURE MEDIUM ADDITIVE, CELL DILUENT ADDITIVE, CULTURE MEDIUM, AND CELL DILUENT” (LAIMU CORPORATION, priority 2018, published 2021)

Tests used:
Type in all cases: cell-based, rat
PC12 cells [1] = assay: Bt2cAMP-induced neurite formation-promoting effect in PC12 cells; conditions: 0.5 mM Bt2cAMP; for neurite formation ratio / neurite formation-promoting effect: compound 0.05-5 μM, FIGS. 1 and 2; for neurite formation-promoting effect compared between compounds: comparison with β-sitosterol or campesterol
Experimental: Using rat adrenal medullary pheochromocytoma-derived PC12 cells (obtained from RIKEN BRC) as a neurodifferentiative model, β-sitosterol, stigmasterol and campesterol were evaluated in terms of the Bt2cAMP (dibutyryladenosine 3′,5′-cyclic monophosphate)-induced neurite formation-promoting effect thereof.
First, PC12 cells were floated on an RPMI-1640 medium (from Sigma Aldrich Corporation) containing 10% equine serum (inactivated), 5% bovine fetal serum (inactivated), 100 U/mL of penicillin G and 100 μg/mL of streptomycin, and well suspended therein so as to be single cells. The suspension of PC 12 cells were sowed on a collagen-coated 96-well plate in an amount of […] cells/90 μL/well, and incubated in a 5% CO2 vapor phase at 37° C. for 24 hours. After incubation, a Dulbecco PBS(−) (Dulbecco phosphate buffer physiological saline water not containing Ca and Mg) added with Bt2cAMP at a concentration of 10 mM, RPMI-1640 medium added with β-sitosterol at a different concentration, or RPMI-1640 medium not added with β-sitosterol was added to the culture medium in each well in an amount of 5 μL each, and further incubated for 24 hours. At that time, the final concentration of each reagent added to the medium in each well was 0.5 mM with no exception for Bt2cAMP, and was 0 μM, 0.05 μM, 0.1 μM, 0.5 μM, 1 μM or 5 μM for β-sitosterol. After incubation, the culture medium was removed from each well, and 1% glutaraldehyde-containing phosphate buffer (0.1 M, pH 7.2) was dispensed in each well in an amount of 100 μL/well, and then left as such for 20 minutes to fix the cells. Subsequently, the glutaraldehyde-containing phosphate buffer was removed from each well, then a Giemsa stain fluid was dispensed in an amount of 100 μL/well, and left as such for 2 to 3 minutes for staining. After staining, the Giemsa stain fluid was removed from each well, and the stained sample in each well was washed twice with ultra-pure water, and then dried.
The number of the positive cells relative to the total number of cells (the total number of cells judged to be positive or negative) was calculated as percentage to be a neurite formation ratio. Here, for positive or negative judgement, 300 to 400 cells/well were observed.
PC12 cells were incubated according to the same method as above except that stigmasterol or campesterol, or a comparative compound of cholesterol or progesterone was used in place of β-sitosterol, and the neurite formation ratio in each case was calculated.
Graphs were drawn by plotting the neurite formation ratio relative to the concentration of β-sitosterol, campesterol or cholesterol added to the culture medium of PC 12 cells, and shown in FIG. 1. Graphs were drawn by plotting the neurite formation ratio relative to the concentration of β-sitosterol, stigmasterol or progesterone added to the culture medium of PC 12 cells, and shown in FIG. 2. In FIGS. 1 and 2, the horizontal axis is a logarithmic scale. The neurite formation ratio is shown as SD, and SD is a standard deviation in the three tests carried out in the same manner. “*” indicates p<0.05, and “**” indicates p<0.01. The same shall apply to the expression of the neurite formation ratio in FIG. 3, as measured in the following experiment (b).

PC12 cells [2] = assay: NGF-induced neurite formation-promoting effect in PC12 cells; conditions: 10 ng/mL NGF, β-sitosterol 0.05-5 μM, 48 hours; FIG. 3
Experimental: Here, NGF (nerve growth factor) differing from Bt2cAMP in point of signaling pathways was used as an inducing agent for neurite formation to evaluate the NGF-induced neurite formation-promoting effect of β-sitosterol.
Specifically, PC12 cells were incubated according to the same method as above except that an NGF-added Dulbecco PBS(−) was used in place of the Bt2cAMP-added Dulbecco PBS(−) and the incubation time for the PC12 cells after addition of NGF and β-sitosterol thereto was 48 hours, and the neurite formation ratio was calculated. The final concentration of each reagent added to the culture medium of PC12 cells in each well was 10 ng/mL with no exception for NGF, and was 0 μM, 0.05 μM, 0.1 μM, 0.5 μM, 1 μM or 5 μM for β-sitosterol. A graph was drawn by plotting the neurite formation ratio relative to the concentration of β-sitosterol added to the culture medium of PC 12 cells, and shown in FIG. 3.

PC12 cells [3] = assay: Cell toxicity test (Calcein-AM, number of living PC12 cells); conditions: 0.5 mM Bt2cAMP, β-sitosterol 0.05-5 μM, 24 hours; FIG. 4
Experimental: For confirming that the neurite formation-promoting effect of each compound recognized in the above-mentioned evaluations (a) and (b) is not caused by stress (cell toxicity) given to cells, the number of living PC12 cells incubated in a culture medium added with Bt2cAMP and β-sitosterol was evaluated using Calcein-AM (from Dojindo Molecular Technologies, Inc.). Calcein-AM is a cell membrane-permeable compound, and when taken in living cells, it is hydrolyzed with esterase to release calcein. […] Accordingly, after a group of cells were processed with Calcein-AM so as to make Calcein-AM taken by the living cells, and then the cells were disrupted to measure the fluorescence intensity by calcein, whereby the number of the living cells in the group of cells can be known. […]
The fluorescence intensity of the sample in each well processed as above was measured at an excitation wavelength of 485 nm and a detection wavelength of 527 nm. The data of the measured fluorescence intensity were plotted relative to the concentration of β-sitosterol added to the culture medium of PC12 cells, and the resultant graph is shown in FIG. 4. […] The fluorescence intensity is a relative value based on the actual value of the fluorescence intensity, 100%, measured in the system not added with β-sitosterol, and is shown as ±DS. […]

PC12 cells [4] = assay: NGF-inductive neural differentiation-promoting effect (neurofilament immunofluorescent staining); conditions: 10 ng/mL NGF, 0.5 μM β-sitosterol, 48 hours; FIG. 5
Experimental: A neurofilament was used as a neural differentiation marker. This was stained according to an immunofluorescent staining method for evaluating the neural differentiation promoting effect of β-sitosterol.
PC12 cells were floated in an RPMI-1640 medium containing 10% equine serum (inactivated), 5% bovine fetal serum (inactivated), 100 U/mL of penicillin G and 100 μg/mL of streptomycin and well suspended therein to be single cells of 1.4×10^4 cells/mL. The suspension of PC12 cells was sown in a collagen-coated 8-well chamber slide at 5.0×10^3 cells/360 μL/well, and incubated in a 5% CO2 vapor phase at 37° C. for 24 hours. After incubation, an NGF-added Dulbecco PBS(−) (NGF solution), and a β-sitosterol-added RPMI-1640 medium (β-sitosterol solution) were added to the medium in each well in an amount 20 μL/well each, and further incubated for 48 hours. At that time, the final concentration of each reagent added to the medium in each well was 10 ng/mL for NGF, and was 0.5 μM for β-sitosterol. After incubation, the medium was removed from each well, which was then washed with PBS(−) (phosphate buffer physiological saline water (not containing Ca and Mg)), processed with a 4% formaldehyde solution dispensed in each well for 30 minutes, and thereafter washed three times with PBS(−) for 3 minutes. […]

Row | SMILES | neurite formation ratio / neurite formation-promoting effect (PC12 cells [1]; 24 hours) | neurite formation-promoting effect compared between compounds (PC12 cells [1]) | also measured
1 | CC[C@H](/C=C/[C@@H](C)C1CCC2C3CC=C4C[C@@H](O)CC[C@]4(C)C3CC[C@@]21C)C(C)C (stereo partly drawn) [stigmasterol] | significantly increased | no difference in the neurite formation-promoting effect | 
2 | CC(C)CCC[C@@H](C)[C@H]1CC[C@H]2[C@@H]3CC=C4C[C@@H](O)CC[C@]4(C)[C@H]3CC[C@]12C [cholesterol, reference compound] | not recognized to have a neurite formation-promoting effect |  | 
3 | CC[C@H](CC[C@@H](C)C1CCC2C3CC=C4C[C@@H](O)CC[C@]4(C)C3CC[C@@]21C)C(C)C (stereo partly drawn) [β-sitosterol] | significantly increased | stronger neurite formation-promoting effect than the system added with campesterol | neurite formation ratio (PC12 cells [2]): significantly increased; fluorescence intensity (calcein), relative to system not added with β-sitosterol (PC12 cells [3]): changed little; number of living cells (PC12 cells [3]): does not decrease; neurofilaments (bright spots in FITC fluorescently-stained image) versus NGF alone (PC12 cells [4]): larger number of neurofilaments appeared
4 | CC(C)[C@H](C)CC[C@@H](C)[C@H]1CC[C@H]2[C@@H]3CC=C4C[C@@H](O)CC[C@]4(C)[C@H]3CC[C@]12C [campesterol] | significantly increased |  | 
5 | CC(=O)[C@H]1CC[C@H]2[C@@H]3CCC4=CC(=O)CC[C@]4(C)[C@H]3CC[C@]12C [Progesterone, progesterone, reference compound] | extremely weak |  | neurite formation ratio (PC12 cells [1]; compound added in an amount of 0.1 μM, 24 hours, FIG. 2): recognized to increase the neurite formation ratio
